Assay [1] concerns S. epidermidis (methicillin-susceptible and methicillin-resistant). The assay is described as follows: Graft infection rat model, quantitative graft culture. It counts as in vivo. Conditions: rats, s.c. Dacron graft, explanted at 7 days, 0.1 mg/l BTs, 10 mg/l RIP, 10 mg/l rifampin. The procedure: As summarized in Table 21, implants impregnated with 0.1 μg/ml BisEDT, 10 μg/ml RIP and 10 μg/ml rifampin, alone or combined were implanted s.c. into rats. Physiological solution (1 ml) containing the MS and MR strains at 2×10^7 cfu/ml was inoculated onto the graft surface using a tuberculin syringe. All grafts were explanted at 7 days following implantation and sonicated for 5 minutes in sterile saline solution to remove the adherent bacteria. Quantitation of viable bacteria was obtained by culturing dilutions on blood agar plates. The limit of detection was approximately 10 cfu/cm^2.

The subject of assay [2] is S. epidermidis. In words: Broth dilution MIC/MBC, BT-antibiotic combinations. It counts as cell-based, Staphylococcus epidermidis. Summed up:
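Checkerboard broth microdilution per NCCLS in cation-adjusted Mueller-Hinton broth, ~2×10^6 cfu/mL inoculum, BTs and antibiotics at incremental concentrations, 24 h at 37°C; growth read as A630, viable counts by plating on nutrient agar. FICI/FBCI computed; synergy ≤0.5 (or ≥4-fold antibiotic drop), no interaction >0.5-4, antagonism >4.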
In general terms: In broth dilution the organism is exposed to a series of concentrations in liquid medium.

Assay [3] has as its system S. epidermidis S2400-1 biofilm. In words: Biofilm prevention, BisEDT-antibiotic combinations. It counts as cell-based, Staphylococcus epidermidis. The procedure: (§1) S. epidermidis grown in TSB+2% glucose in polystyrene plates for 48 h at 37° C. Gatifloxacin (GF), clindamycin (CM), minocycline (MC), gentamicin (GM), vancomycin (VM), cefazolin (CZ), nafcillin (NC), and rifampicin (RP). […]

Assay [4] deals with MRSA clinical isolates. The assay is described as follows: Broth dilution MIC in BHIG/X medium with subMIC BisEDT. Type of assay: cell-based, Staphylococcus aureus. Conditions: 12 MRSA clinical isolates, BHIG/X, mean ± SD. As to the method: (§2) Broth dilution antimicrobial susceptibility studies were performed against 12 MRSA strains using several antibiotics combined with subMIC levels of BisEDT (Table 18). Both the biofilm-prevention concentration (BPC) and the minimum inhibitory concentration (MIC) were determined in a special biofilm culture medium (BHIG/X). […] These strains were already sensitive to vancomycin, but were made considerably moreso in the presence of subMIC BisEDT.
In this particular study, the data indicated synergy between BisEDT and cefepime (FIC<0.5), with many of the isolates at the breakpoint for sensitivity.

Assay [5] concerns MRSA clinical isolates biofilm. In words: Biofilm-prevention concentration (BPC) in BHIG/X medium with subMIC BisEDT. Type of assay: cell-based, Staphylococcus aureus. Conditions: 12 MRSA clinical isolates, mean ± SD. As to the method: as §2
Assay [6] has as its system lawn of MRSA (Methicillin-resistant S. aureus). The assay is described as follows: Antibiotic-soaked discs on bacterial lawn with and without BisEDT. Type of assay: cell-based, Staphylococcus aureus. Conditions: antibiotic discs combined with BisEDT 0.05 μg/ml. As to the method:
FIGS. 4A and 4B show the subinhibitory BisEDT reversing antibiotic-resistance to several antibiotics. Effects of antibiotics with and without BisEDT (0.05 μg/ml) on a lawn of MRSA (Methicillin-resistant S. aureus) is shown. […] [GM=gentamicin, CZ=cefazolin, FEP=cefepime, IPM=imipenim, SAM=ampicillin/sulbactam, LVX=levofloxacin.

In another assay the test system is MRSA. The assay is described as follows: Combination MIC study, nafcillin or gentamicin + BisEDT, TSB with 2% glucose. It counts as cell-based, Staphylococcus aureus. From the text: BTs reversed the resistance of all four gentamicin-resistant isolates tested to clinically relevant concentrations [Domenico et al., 2002]. The MICs for these antimicrobial agents was reduced substantially, especially for gentamicin.

The next assay concerns S. epidermidis biofilm. The assay is described as follows: Biofilm prevention concentration (BPC), BisEDT and antibiotics. It counts as cell-based, Staphylococcus epidermidis. Conditions: TSB + 2% glucose, 48 h. The procedure:
as §1

The subject of assay [7] is S. epidermidis. The assay is described as follows: Growth inhibition (MIC) and MBC, BisEDT and antibiotics. Type of assay: cell-based, Staphylococcus epidermidis. From the text: Results are expressed as the mean change in MIC (dilution steps) with increasing BisEDT (n=3). See legend in FIG. 5 for antibiotic definitions.
The MIC change was most pronounced for clindamycin and gentamicin, followed by vancomycin, cefazolin, minocycline, gatifloxacin and nafcillin, with rifampicin unaffected.
Minimum bactericidal concentration (MBC) for most antibiotics tested against S. epidermidis decreased slightly with subMIC BisEDT. […] Clindamycin is a bacteriostatic agent, which explains its lack of bactericidal activity. Cefazolin resistance was reversed with respect to the MBC [Domenico et al., 2003]. These effects were additive.

For assay [8], the system named is MRSA clinical isolates. Conditions: cited from earlier work.
Where [9] appears, read: S. epidermidis S2400-1, BisEDT 0.1 μg/ml.

Results on two substances are retold here after patent US9408393B2, “Bismuth-thiols as antiseptics for agricultural, industrial and other uses” (Microbion Corporation, priority 2010, dated 2016).

Regarding bismuth-1,2-ethanedithiol [BisEDT], the Quantitative graft culture in [1] (methicillin-resistant S. epidermidis) was 6.2 × 10^2 ± 2.3 × 10^2 cfu/cm^2; in [1] (methicillin-susceptible S. epidermidis) it was 5.8 × 10^2 ± 0.9 × 10^2 cfu/cm^2.
A word on the MIC: it is the lowest concentration found to suppress growth. The term MBC denotes the smallest concentration meeting the test's criterion for killing. For the substance gentamicin, the “Δ, MIC” value with S. epidermidis [2] (S. epidermidis ATCC 35984, 0.05 μg/ml BisEDT) worked out at 13.3. For the same substance, the MIC with S. epidermidis [2] (S. epidermidis ATCC 35984, BisEDT 0.0 μg/ml) worked out at 213.33 µg/mL; in the assay with S. epidermidis [2] (S. epidermidis ATCC 35984, BisEDT 0.05 μg/ml) it was 16.00 µg/mL; in the assay on S. epidermidis [2] (S. epidermidis S2400-1, BisEDT 0 μg/ml) it was 2048 µg/mL; in the assay with S. epidermidis [2] (S. epidermidis S2400-1, BisEDT 0.05 μg/ml), 320 µg/mL; in the assay with S. epidermidis [2] (setting [9]), 80 µg/mL; in the assay on MRSA clinical isolates [4] (BisEDT 0 μg/mL), 81 ± 40 µg/mL. In addition, the minimum inhibitory concentration (MIC) worked out at 60 ± 27 µg/mL with MRSA clinical isolates [4] (BisEDT 0.025 μg/mL), 58 ± 30 µg/mL in the assay with MRSA clinical isolates [4] (BisEDT 0.05 μg/mL) and 48 ± 31 µg/mL in the assay with MRSA clinical isolates [4] (BisEDT 0.1 μg/mL). Besides, in the assay on S. epidermidis [2] (S. epidermidis S2400-1), the “Synergy, MBC” value was “+ (Synergy was also defined conventionally as ≧4-fold decrease in antibiotic concentration)”. In the assay on S. epidermidis [2] (S. epidermidis S2400-1), the “Synergy, MIC” value is recorded as “+ (Synergy was also defined conventionally as ≧4-fold decrease in antibiotic concentration)”. Further, in the assay on S. epidermidis [2] (S. epidermidis S2400-1, 0.05 μg/ml BisEDT), the “Δ (0.05 BE), MIC” value was determined as 6.40. Also, the “Δ (0.1 BE), MBC” value in the assay with S. epidermidis [2] (S. epidermidis S2400-1, 0.1 μg/ml BisEDT) was determined as 6.00. Further, the MBC in the assay with S. epidermidis [2] (S. epidermidis S2400-1, BisEDT 0.0 μg/ml) stood at 1536 µg/mL; with S. epidermidis [2] (setting [9]), 256 µg/mL. In assay [3], the “Synergy, biofilm prevention” value is reported as “borderline”. In [3] (0.05 μg/ml BisEDT), the “Δ (0.05 BE), biofilm prevention” value is listed as 3.9. The entries for the “Biofilm Prevention (antibiotic concentration)” value in [3] (BisEDT 0 μg/ml), in [3] (BisEDT 0.05 μg/ml) and in [3] (BisEDT 0.1 μg/ml) were 555 µg/mL, 144 µg/mL and 12 µg/mL, respectively. Besides, the BPC was 81 ± 41 µg/mL in [5] (BisEDT 0 μg/mL), 63 ± 30 µg/mL in assay [5] (BisEDT 0.025 μg/mL), 53 ± 31 µg/mL in [5] (BisEDT 0.05 μg/mL) and 33 ± 25 µg/mL in assay [5] (BisEDT 0.1 μg/mL). The “Antibiotic action on MRSA lawn with subMIC BisEDT” value in assay [6] is reported as “enhanced antibiotic action”. In the assay on MRSA (BisEDT 0.2 μg/ml), the “Fold reduction of antibiotic MIC90 by BisEDT” value is recorded as “over 10 fold”. Besides, the FIC in the assay on MRSA (antibiotic combined with BisEDT 0.2 μg/ml) amounted to 0.6. Moreover, the “Fold reduction of BPC in presence of subMIC BisEDT” value with S. epidermidis biofilm was 4 fold. Moreover, in the assay with S. epidermidis [7], the “Reduction in MBC with subMIC BisEDT” value was 4- to 16 fold. Besides, the “MIC Standards, R (resistance)” value with MRSA clinical isolates [8] (Standard MIC breakpoint for resistance) is reported as “≧16 μg/ml”. In the assay with MRSA clinical isolates [8] (Standard MIC breakpoint for sensitivity), the “MIC Standards, S (antibiotic sensitivity)” value is “≦4 μg/ml”.
